US7135466B2 (Kirin Beer Kabushiki Kaisha, priority 1999, dated 2006)
Read-outs that look alike come from different tables or passages of the source.

Key:
PDGF-Ra = target: T1, PDGF-Ra (Homo sapiens, UniProt P16234); test: Inhibitory activity against PDGF-Ra phosphorylation by PDGF-AA stimulation using G292; format: cell-based; conditions: for IC50: > means inhibition at indicated concentration not more than 50%, < and << not less than 50%, read-out: PDGF (E) IC50; for inhibition at 0.1 µM: G292, at 100 nM, read-out: PDGF (E) inhibition (%) at 100 nM
T1 construct: host or cells: G-292 human osteosarcoma cells
T1 sequence (P16234 24-1089): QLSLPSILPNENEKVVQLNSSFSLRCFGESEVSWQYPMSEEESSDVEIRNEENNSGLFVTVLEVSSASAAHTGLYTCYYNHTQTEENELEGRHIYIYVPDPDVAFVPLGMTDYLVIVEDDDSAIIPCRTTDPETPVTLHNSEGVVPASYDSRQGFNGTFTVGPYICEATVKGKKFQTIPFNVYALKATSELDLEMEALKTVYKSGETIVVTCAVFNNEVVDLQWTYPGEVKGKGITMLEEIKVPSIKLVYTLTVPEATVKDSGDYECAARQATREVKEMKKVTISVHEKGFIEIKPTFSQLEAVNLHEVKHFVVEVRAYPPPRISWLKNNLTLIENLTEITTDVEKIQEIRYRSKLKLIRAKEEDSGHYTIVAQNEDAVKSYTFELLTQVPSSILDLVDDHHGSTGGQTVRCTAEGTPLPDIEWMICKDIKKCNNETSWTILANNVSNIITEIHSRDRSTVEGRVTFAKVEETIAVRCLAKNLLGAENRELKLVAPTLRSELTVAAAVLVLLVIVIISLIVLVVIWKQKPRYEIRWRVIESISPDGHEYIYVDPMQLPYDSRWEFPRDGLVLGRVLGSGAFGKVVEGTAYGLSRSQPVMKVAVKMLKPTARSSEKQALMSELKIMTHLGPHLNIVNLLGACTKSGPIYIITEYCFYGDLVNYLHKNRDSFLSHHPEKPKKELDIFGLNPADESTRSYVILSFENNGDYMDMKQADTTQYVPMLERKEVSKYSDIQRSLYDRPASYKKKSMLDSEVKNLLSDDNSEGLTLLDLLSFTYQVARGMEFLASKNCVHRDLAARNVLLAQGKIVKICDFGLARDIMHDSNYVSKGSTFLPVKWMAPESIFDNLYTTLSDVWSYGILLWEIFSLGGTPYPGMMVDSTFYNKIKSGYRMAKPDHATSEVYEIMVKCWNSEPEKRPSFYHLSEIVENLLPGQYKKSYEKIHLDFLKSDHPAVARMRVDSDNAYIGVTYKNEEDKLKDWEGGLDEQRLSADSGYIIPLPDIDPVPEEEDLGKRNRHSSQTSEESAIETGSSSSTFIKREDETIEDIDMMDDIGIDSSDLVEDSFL
Procedure, shortened: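 Cells seeded in low-serum medium are exposed to test compound for one hour, then PDGF-AA (50 ng/ml) triggers receptor phosphorylation for 5 min at 37 °C. Phospho-PDGF-Ra in solubilized cells is quantified by anti-phosphotyrosine capture ELISA at 450 nm.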

c-kit = target: T2, c-kit (Homo sapiens, UniProt P10721); test: Inhibitory activity against c-kit autophosphorylation (MO7e cells, h-SCF); format: cell-based; conditions: for inhibition at 1 µM: Mo7e, at 1000 nM; for IC50: MO7e cells, read-out: c-kit IC50
T2 construct: MO7e (human megakaryocytic leukemia cell line) which had been arrested for 20 hr; endogenous in cells; host or cells: MO7e human megakaryocytic leukemia cell line
T2 sequence (P10721 26-976): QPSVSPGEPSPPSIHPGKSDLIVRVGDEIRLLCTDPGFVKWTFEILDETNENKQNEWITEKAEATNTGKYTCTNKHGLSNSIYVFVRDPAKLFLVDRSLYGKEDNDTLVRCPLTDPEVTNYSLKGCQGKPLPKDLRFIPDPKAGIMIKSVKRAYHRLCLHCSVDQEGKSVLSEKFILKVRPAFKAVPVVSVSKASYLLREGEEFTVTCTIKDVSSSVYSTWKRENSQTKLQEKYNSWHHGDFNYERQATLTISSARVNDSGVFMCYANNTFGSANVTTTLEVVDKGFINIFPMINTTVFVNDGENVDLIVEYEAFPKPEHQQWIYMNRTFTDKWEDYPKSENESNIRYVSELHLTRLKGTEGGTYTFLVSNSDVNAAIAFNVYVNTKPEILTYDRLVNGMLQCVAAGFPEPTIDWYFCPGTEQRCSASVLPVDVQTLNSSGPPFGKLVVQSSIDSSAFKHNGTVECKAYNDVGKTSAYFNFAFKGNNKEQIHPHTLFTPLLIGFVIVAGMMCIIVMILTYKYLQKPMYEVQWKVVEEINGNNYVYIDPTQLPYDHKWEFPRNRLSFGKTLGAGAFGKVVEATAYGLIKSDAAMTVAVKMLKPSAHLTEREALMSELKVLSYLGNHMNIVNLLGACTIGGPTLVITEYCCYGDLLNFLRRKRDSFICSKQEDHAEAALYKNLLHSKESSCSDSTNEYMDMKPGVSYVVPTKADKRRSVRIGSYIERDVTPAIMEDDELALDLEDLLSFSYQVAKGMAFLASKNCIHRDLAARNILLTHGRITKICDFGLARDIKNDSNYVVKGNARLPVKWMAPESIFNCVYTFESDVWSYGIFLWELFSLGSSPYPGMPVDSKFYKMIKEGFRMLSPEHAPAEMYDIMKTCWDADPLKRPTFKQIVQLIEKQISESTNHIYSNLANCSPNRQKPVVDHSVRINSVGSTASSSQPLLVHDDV
Procedure, shortened: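 Ligand-induced c-kit tyrosine phosphorylation is measured in MO7e cells that were quiesced 20 hr and preincubated with compound for 1 hr prior to a 5 min pulse of 50 ng/ml human SCF. Phospho-c-kit is detected by anti-phosphotyrosine capture ELISA, A450.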

[1] = figure within parentheses in −( ) or >1000( )
[2] = figure within parentheses in >100( )
[3] = figure in parentheses in >100( )

IC50 (PDGF-Ra)	IC50 (PDGF-Ra; Pharmacological Test Example 1)	IC50 (c-kit; h-SCF 50 ng/ml)	SMILES	also measured
19 nM	–	–	COc1cc2ncnc(Oc3ccc(NC(=O)NCCN(C(C)C)C(C)C)cc3)c2cc1OC [Example 656, N-[2-(Diisopropylamino)ethyl]-N′-{4-[(6,7-dimethoxy-4-quinazolinyl)oxy]phenyl}urea]	inhibition at 1 µM (c-kit; [1]): 32%
–	7 nM	83 nM	CCCCCCOC(=O)Nc1cc(C)c(Oc2ccnc3cc(OC)c(OC)cc23)cc1C [Example 262, Hexyl N-{4-[(6,7-dimethoxy-4-quinolyl)oxy]-2,5-dimethylphenyl}carbamate]	–
14 nM	–	–	COc1ccc(OCCCOc2ccc(Oc3ccnc4cc(OC)c(OC)cc34)cc2)cc1 [Example 794, 6,7-Dimethoxy-4-{4-[3-(4-methoxy-phenoxy)propoxy]phenoxy}quinoline]	IC50 (c-kit; 50 ng/ml h-SCF): 192 nM
–	< 10 nM	253 nM	CCCCC(CC)OC(=O)Nc1ccc(Oc2ccnc3cc(OC)c(OC)cc23)cc1 (stereo not shown) [Example 329, 1-Ethylpentyl N-{4-[(6,7-dimethoxy-4-quinolyl)oxy]phenyl}carbamate]	–
–	18 nM	475 nM	COc1cc2ncnc(Oc3ccc(NC(=O)OC(C)c4ccc(C)cc4)cc3)c2cc1OC (stereo not shown) [Example 135, 1-(4-Methylphenyl)ethyl N{4-[(6,7-dimethoxy-4-quinazolinyl)oxy]phenyl}carbamate]	–
–	38 nM	369 nM	CCCC(OC(=O)Nc1ccc(Oc2ccnc3cc(OC)c(OC)cc23)cc1)c1ccccc1 (stereo not shown) [Example 184, 1-Phenylbutyl N{4-[(6,7-dimethoxy-4-quinolyl)oxy]phenyl}carbamate]	–
–	35 nM	122 nM	CCC(OC(=O)Nc1ccc(Oc2ccnc3cc(OC)c(OC)cc23)c(C)c1C)c1ccccc1 (stereo not shown) [Example 265, 1-Phenylpropyl N-{4-[(6,7-dimethoxy-4-quinolyl)oxy]-2,3-dimethylphenyl}carbamate]	–
–	4 nM	184 nM	COc1cc2nccc(Oc3ccc(NC(=O)OCc4ccccc4C)cc3)c2cc1OC [Example 250, 2-Methylbenzyl N-{4-[(6,7-dimethoxy-4-quinolyl)oxy]phenyl}carbamate]	–
–	20 nM	< 30 nM	COc1cc2nccc(Oc3ccc(NC(=O)Sc4ccc(Cl)cc4C)cc3)c2cc1OC [Example 176, 4-Chloro-2-methylphenyl{4-[(6,7-dimethoxy-4-quinolyl)oxy]anilino}methanethioate]	–
–	13 nM	505 nM	COc1cc2ncnc(Oc3ccc(NC(=O)OC(C)c4cccc(Br)c4)cc3)c2cc1OC (stereo not shown) [Example 120, 1-(3-Bromophenyl)ethyl N-{4-[(6,7-dimethoxy-4-quinazolinyl)oxy]phenyl}carbamate]	–
–	> 100 nM	800 nM	COc1ccc(C(C)OC(=O)Nc2cc(C)c(Oc3ccnc4cc(OC)c(OC)cc34)cc2C)cc1 (stereo not shown) [Example 34, 1-(4-Methoxyphenyl)ethyl N-{4-[(6,7-dimethoxy-4-quinolyl)oxy]-2,5-dimethylphenyl}carbamate]	inhibition at 0.1 µM (PDGF-Ra; [3]): 45%
–	12 nM	64 nM	COc1cc2nccc(Oc3ccc(NC(=O)OC(C)C)cc3)c2cc1OC [Example 324, Isopropyl N-{4-[(6,7-dimethoxy-4-quinolyl)oxy]phenyl}carbamate]	–
–	< 10 nM	53 nM	COc1cc2nccc(Oc3ccc(NC(=O)OCCc4ccccc4)c(C)c3C)c2cc1OC [Example 299, Phenethyl N-{4-[(6,7-dimethoxy-4-quinolyl)oxy]-2,3-dimethylphenyl}carbamate]	–
–	13 nM	70 nM	COc1ccc(COC(=O)Nc2ccc(Oc3ccnc4cc(OC)c(OC)cc34)cc2)cc1OC [Example 62, 3,4-Dimethoxybenzyl N-{4-[(6,7-dimethoxy-4-quinolyl)oxy]phenyl}carbamate]	–
–	15 nM	200 nM	COc1cc2nccc(Oc3ccc(NC(=O)OC(C)c4ccc(F)cc4)c(C)c3C)c2cc1OC (stereo not shown) [Example 103, 1-(4-Fluorophenyl)ethyl N-{4-[(6,7-dimethoxy-4-quinolyl)oxy]-2,3-dimethylphenyl}carbamate]	–
< 10 nM	–	–	COc1cc2nccc(Oc3ccc(NC(=S)NC(=O)c4ccc(C)cc4)cc3)c2cc1OC [Example 959, N-{4-[(6,7-Dimethoxy-4-quinolyl)oxy]phenyl}-N′-(4-methylbenzoyl)thiourea]	IC50 (c-kit; h-SCF stimulation): 300 nM
45 nM	–	–	C#CCC(CC)OC(=O)N(C)c1ccc(Oc2ccnc3cc(OC)c(OC)cc23)cc1 (stereo not shown) [Example 496, 1-Ethyl-3-butynyl N-{4-[(6,7-dimethoxy-4-quinolyl)oxy]phenyl}-N-methylcarbamate]	inhibition at 1 µM (c-kit; [1]): 32%

Further lines, the compound ahead of its results:

SMILES	IC50 (PDGF-Ra)	IC50 (PDGF-Ra; Pharmacological Test Example 1)	IC50 (c-kit; h-SCF 50 ng/ml)	also measured
COc1cc2nccc(Oc3cc(C)c(NC(=S)NCCN4CCOCC4)cc3C)c2cc1OC [Example 545, N-{4-[(6,7-Dimethoxy-4-quinolyl)oxy]-2,5-dimethylphenyl}-N′-[2-(1-morpholino)ethyl]thiourea]	70 nM	–	–	IC50 (c-kit; 50 ng/ml h-SCF): 254 nM
COc1cccc(COC(=O)Nc2cc(C)c(Oc3ccnc4cc(OC)c(OC)cc34)cc2C)c1 [Example 240, 3-Methoxybenzyl N-{4-[(6,7-dimethoxy-4-quinolyl)oxy]-2,5-dimethylphenyl}carbamate]	–	17 nM	248 nM	–
C=C(C)COC(=O)Nc1ccc(Oc2ccnc3cc(OC)c(OC)cc23)c(C)c1C [Example 406, 2-Methylallyl N-{4-[(6,7-dimethoxy-4-quinolyl)oxy]-2,3-dimethylphenyl}carbamate]	< 10 nM	–	–	IC50 (c-kit; 50 ng/ml h-SCF): < 30 nM
COc1cc2ncnc(Oc3ccc(N)c(N4CCOCC4)c3)c2cc1OC [Example 1150]	51 nM	–	–	IC50 (c-kit; h-SCF stimulation): 192 nM
COc1cc2nccc(Oc3ccc(NC(=S)NC(=O)Cc4ccccc4)c(F)c3)c2cc1OC [Example 1024, N-{4-[(6,7-Dimethoxy-4-quinolyl)oxy]-2-fluorophenyl}-N′-(2-phenylacetyl)thiourea]	11 nM	–	–	IC50 (c-kit; h-SCF stimulation): 141 nM
COc1cc2ncnc(Oc3ccc(NC(=S)NCCN4CCCC4)cc3)c2cc1OC [Example 530, N-{4-[(6,7-Dimethoxy-4-quinazolinyl)oxy]phenyl}-N′-[2-(1-pyrrolidyl)ethyl]thiourea]	> 100 nM	–	–	inhibition at 0.1 µM (PDGF-Ra; [2]): 45%; inhibition at 1 µM (c-kit; [1]): 34%
COc1cc2nccc(Oc3cc(C)c(NC(=O)NCCN4CCCCC4)cc3C)c2cc1OC [Example 674, N-{4-[(6,7-Dimethoxy-4-quinolyl)oxy]-2,5-dimethylphenyl}-N′-(2-piperidinoethyl)urea]	> 100 nM	–	–	inhibition at 0.1 µM (PDGF-Ra; [2]): 43%; IC50 (c-kit; 50 ng/ml h-SCF): 854 nM
COc1cc2nccc(Oc3ccc(NC(=O)OC4CCCN(C)C4)c(C)c3C)c2cc1OC (stereo not shown) [Example 464, 1-Methyl-3-piperidyl N-{4-[(6,7-dimethoxy-4-quinolyl)oxy]-2,3-dimethylphenyl}carbamate]	55 nM	–	–	IC50 (c-kit; 50 ng/ml h-SCF): 201 nM
COc1cc2ncnc(Oc3ccc(NC(=O)NC4CCN(Cc5ccccc5)CC4)c([N+](=O)[O-])c3)c2cc1OC [Example 606, N-{4-[(6,7-Dimethoxy-4-quinazolinyl)oxy]-2-nitrophenyl}-N′-[4-(N-benzyl)piperidinyl]urea]	18 nM	–	–	IC50 (c-kit; 50 ng/ml h-SCF): 263 nM
COc1cc2nccc(Oc3ccc(NC(=S)NC(=O)C(C)Oc4ccccc4Cl)cc3Cl)c2cc1OC (stereo not shown) [Example 764, N-{3-Chloro-4-[(6,7-dimethoxy-4-quinolyl)oxy]phenyl}-N′-[2-(2-chlorophenoxy)propanoyl]thiourea]	14 nM	–	–	inhibition at 1 µM (c-kit; [1]): 19%
COc1cc2nccc(Oc3ccc(NC(=S)NC(=O)c4ccc(C)s4)cc3F)c2cc1OC [Example 1040, N-{4-[(6,7-Dimethoxy-4-quinolyl)oxy]-3-fluorophenyl}-N′-[(5-methyl-2-thienyl)carbonyl]thiourea]	< 10 nM	–	–	IC50 (c-kit; h-SCF stimulation): 414 nM
COc1cc2nccc(Oc3ccc(NC(=S)NC(=O)Cc4cccs4)cc3Cl)c2cc1OC [Example 701, N-{3-Chloro-4-[(6,7-dimethoxy-4-quinolyl)oxy]phenyl}-N′-[2-(2-thienyl)acetyl]thiourea]	< 10 nM	–	–	IC50 (c-kit; 50 ng/ml h-SCF): 459 nM
COc1cc2nccc(Oc3cc(C)c(NC(=O)OCC4CCCCC4)cc3C)c2cc1OC [Example 284, Cyclohexylmethyl N-{4-[(6,7-dimethoxy-4-quinolyl)oxy]-2,5-dimethylphenyl}carbamate]	–	< 10 nM	269 nM	–
COc1cc2nccc(Oc3ccc(NC(=O)NC4CCN(Cc5ccccc5C)C4)c(C)c3C)c2cc1OC (stereo not shown) [Example 572, N-{4-[(6,7-Dimethoxy-4-quinolyl)oxy]-2,3-dimethylphenyl}-N′-[1-(2-methylbenzyl)tetrahydro-1H-3-pyrrolyl]urea]	64 nM	–	–	IC50 (c-kit; 50 ng/ml h-SCF): 262 nM
COc1cc2ncnc(Oc3ccc(NC(=S)NC(=O)C4CC4)cc3)c2cc1OC [Example 1181, N-Cyclopropylcarbonyl-N′-{4-[(6,7-dimethoxy-4-quinazolinyl)oxy]phenyl}thiourea]	35 nM	–	–	inhibition at 1 µM (c-kit; figure in parentheses in −( )): 26%
COc1cc2nccc(Oc3cc(C)c(NCCCOc4ccccc4)cc3C)c2cc1OC [Example 886, N-{4-[(6,7-Dimethoxy-4-quinolyl)oxy]-2 5-dimethylphenyl}-N-(3-phenoxypropyl)amine]	> 100 nM	–	–	inhibition at 0.1 µM (PDGF-Ra; [3]): 47%; inhibition at 1 µM (c-kit; figure in parentheses in −( )): 27%
